Assay results as given in patent publication US10004701B2, “Methods and compositions for treating infection” (UNIVERSITY OF ROCHESTER, priority 2012, dated 2018).
Counter-ions that a name gives are not always drawn. Like-named read-outs stand apart in the source and are kept apart here.

How the values were obtained:
Assay in all cases: AK assay 384-well format, Prestwick library screening
E. faecium = assay type: cell-based, Enterococcus faecium; details: 50 μM final drug concentration; for fold induction at 50 µM: Enterococcus faecium, 3 h
P. aeruginosa = assay type: cell-based, Pseudomonas aeruginosa; details: 50 μM final drug concentration; for fold induction at 50 µM: Pseudomonas aeruginosa, 3 h
E. cloacae = assay type: cell-based, Enterobacter cloacae; details: 50 μM final drug concentration; for fold induction at 50 µM: Enterobacter cloacae, 3 h
E. coli = assay type: cell-based, Escherichia coli; details: 50 μM final drug concentration; for fold induction at 50 µM: Escherichia coli, 3 h
K. pneumoniae = assay type: cell-based, Klebsiella pneumoniae; details: 50 μM final drug concentration; for fold induction at 50 µM: Klebsiella pneumoniae, 3 h
[1] = test system: S. aureus strain USA300-0114; assay type: cell-based, Staphylococcus aureus; details: 50 μM final drug concentration; for fold induction at 50 µM: Staphylococcus aureus, USA300, 3 h
[2] = test system: A. baumannii strain 98-37-09; assay type: cell-based, Acinetobacter baumannii; details: 50 μM final drug concentration; for fold induction at 50 µM: Acinetobacter baumannii, 983709, 3 h
[3] = 384-well format, cutoff for positive-scoring molecules 3-fold increase, read-out: AK-based Prestwick Library Screening Results, E. faecium (increase in extracellular AK activity)
[4] = 384-well format, cutoff for positive-scoring molecules 3-fold increase, read-out: AK-based Prestwick Library Screening Results, P. aeruginosa (increase in extracellular AK activity)
[5] = 384-well format, cutoff for positive-scoring molecules 3-fold increase, read-out: AK-based Prestwick Library Screening Results, E. cloacae (increase in extracellular AK activity)
[6] = 384-well format, cutoff for positive-scoring molecules 3-fold increase, read-out: AK-based Prestwick Library Screening Results, E. coli (increase in extracellular AK activity)
[7] = 384-well format, cutoff for positive-scoring molecules 3-fold increase, read-out: AK-based Prestwick Library Screening Results, K. pneumoniae (increase in extracellular AK activity)
[8] = 384-well format, cutoff for positive-scoring molecules 3-fold increase, read-out: AK-based Prestwick Library Screening Results, S. aureus (increase in extracellular AK activity)
[9] = 384-well format, cutoff for positive-scoring molecules 3-fold increase, read-out: AK-based Prestwick Library Screening Results, A. baumannii (increase in extracellular AK activity)
[10] = cutoff for positive-scoring molecules 3-fold increase, read-out: AK-based Prestwick Library Screening Results, E. faecium (fold increase in extracellular AK activity)
[11] = cutoff for positive-scoring molecules 3-fold increase, read-out: AK-based Prestwick Library Screening Results, P. aeruginosa (fold increase in extracellular AK activity)
[12] = cutoff for positive-scoring molecules 3-fold increase, read-out: AK-based Prestwick Library Screening Results, E. cloacae (fold increase in extracellular AK activity)
[13] = cutoff for positive-scoring molecules 3-fold increase, read-out: AK-based Prestwick Library Screening Results, E. coli (fold increase in extracellular AK activity)
[14] = cutoff for positive-scoring molecules 3-fold increase, read-out: AK-based Prestwick Library Screening Results, K. pneumoniae (fold increase in extracellular AK activity)
[15] = cutoff for positive-scoring molecules 3-fold increase, read-out: AK-based Prestwick Library Screening Results, S. aureus (fold increase in extracellular AK activity)
[16] = cutoff for positive-scoring molecules 3-fold increase, read-out: AK-based Prestwick Library Screening Results, A. baumannii (fold increase in extracellular AK activity)

SMILES: NC12CC3CC(CC(C3)C1)C2.NC12CC3CC(CC(C3)C1)C2.O=C(O)/C=C/C(=O)O [Adamantamine fumarate]
- AK-based Prestwick Library Screening Results: E. faecium (increase in extracellular AK activity) (E. faecium; planktonic E. faecium, 384-well, cutoff for positive-scoring molecules 3-fold increase): 0.9
- AK-based Prestwick Library Screening Results: P. aeruginosa (increase in extracellular AK activity) (P. aeruginosa; planktonic P. aeruginosa, 384-well, cutoff for positive-scoring molecules 3-fold increase): 0.4
- AK-based Prestwick Library Screening Results: E. cloacae (increase in extracellular AK activity) (E. cloacae; planktonic E. cloacae, 384-well, cutoff for positive-scoring molecules 3-fold increase): 0.4
- AK-based Prestwick Library Screening Results: E. coli (increase in extracellular AK activity) (E. coli; planktonic E. coli, 384-well, cutoff for positive-scoring molecules 3-fold increase): 0.5
- AK-based Prestwick Library Screening Results: K. pneumoniae (increase in extracellular AK activity) (K. pneumoniae; planktonic K. pneumoniae, 384-well, cutoff for positive-scoring molecules 3-fold increase): 0.5
- AK-based Prestwick Library Screening Results: S. aureus (increase in extracellular AK activity) ([1]; planktonic S. aureus, 384-well, cutoff for positive-scoring molecules 3-fold increase): 0.4
- AK-based Prestwick Library Screening Results: A. baumannii (increase in extracellular AK activity) ([2]; planktonic A. baumannii, 384-well, cutoff for positive-scoring molecules 3-fold increase): 0.5

SMILES: Cc1ccc(S(=O)(=O)NC(=O)NN2CCCCCC2)cc1 [Tolazamide]
- fold induction at 50 µM (E. faecium; planktonic, cutoff for positive 3-fold increase, read-out: AK-based Prestwick Library Screening Results, E. faecium (fold increase in extracellular AK activity)): 1
- fold induction at 50 µM (P. aeruginosa; planktonic, cutoff for positive 3-fold increase, read-out: AK-based Prestwick Library Screening Results, P. aeruginosa (fold increase in extracellular AK activity)): 1.4
- fold induction at 50 µM (E. cloacae; planktonic, cutoff for positive 3-fold increase, read-out: AK-based Prestwick Library Screening Results, E. cloacae (fold increase in extracellular AK activity)): 1.6
- fold induction at 50 µM (E. coli; planktonic, cutoff for positive 3-fold increase, read-out: AK-based Prestwick Library Screening Results, E. coli (fold increase in extracellular AK activity)): 1.5
- fold induction at 50 µM (K. pneumoniae; planktonic, cutoff for positive 3-fold increase, read-out: AK-based Prestwick Library Screening Results, K. pneumoniae (fold increase in extracellular AK activity)): 1.4
- fold induction at 50 µM ([1]; planktonic, cutoff for positive 3-fold increase, read-out: AK-based Prestwick Library Screening Results, S. aureus (fold increase in extracellular AK activity)): 1
- fold induction at 50 µM ([2]; planktonic, cutoff for positive 3-fold increase, read-out: AK-based Prestwick Library Screening Results, A. baumannii (fold increase in extracellular AK activity)): 1.2

SMILES: Cc1c(N)c(=O)n(-c2ccccc2)n1C [Ampyrone]
- fold induction at 50 µM (E. faecium; [3]): 1
- fold induction at 50 µM (P. aeruginosa; [4]): 1
- fold induction at 50 µM (E. cloacae; [5]): 1
- fold induction at 50 µM (E. coli; [6]): 0.9
- fold induction at 50 µM (K. pneumoniae; [7]): 0.7
- fold induction at 50 µM [1, 8]: 0.8
- fold induction at 50 µM [2, 9]: 0.9

SMILES: Nc1ccc(S(=O)(=O)NC(=O)c2ccccc2)cc1 [Sulfabenzamide]
- fold induction at 50 µM (E. faecium; [10]): 1.1
- fold induction at 50 µM (P. aeruginosa; [11]): 1.1
- fold induction at 50 µM (E. cloacae; [12]): 1.6
- fold induction at 50 µM (E. coli; [13]): 1.1
- fold induction at 50 µM (K. pneumoniae; [14]): 1.1
- fold induction at 50 µM [1, 15]: 1.2
- fold induction at 50 µM [2, 16]: 2.8

SMILES: CCN(CC)CCNC(=O)c1cc(Cl)c(N)cc1OC [Metoclopramide monohydrochloride]
- fold induction at 50 µM (E. faecium; planktonic E. faecium, 384-well, cutoff for positive-scoring molecules 3-fold increase, read-out: AK-based Prestwick Library Screening Results: E. faecium (increase in extracellular AK activity)): 1.2
- fold induction at 50 µM (P. aeruginosa; planktonic P. aeruginosa, 384-well, cutoff for positive-scoring molecules 3-fold increase, read-out: AK-based Prestwick Library Screening Results: P. aeruginosa (increase in extracellular AK activity)): 1.1
- fold induction at 50 µM (E. cloacae; planktonic E. cloacae, 384-well, cutoff for positive-scoring molecules 3-fold increase, read-out: AK-based Prestwick Library Screening Results: E. cloacae (increase in extracellular AK activity)): 1.6
- fold induction at 50 µM (E. coli; planktonic E. coli, 384-well, cutoff for positive-scoring molecules 3-fold increase, read-out: AK-based Prestwick Library Screening Results: E. coli (increase in extracellular AK activity)): 1.3
- fold induction at 50 µM (K. pneumoniae; planktonic K. pneumoniae, 384-well, cutoff for positive-scoring molecules 3-fold increase, read-out: AK-based Prestwick Library Screening Results: K. pneumoniae (increase in extracellular AK activity)): 0.9
- fold induction at 50 µM ([1]; planktonic S. aureus, 384-well, cutoff for positive-scoring molecules 3-fold increase, read-out: AK-based Prestwick Library Screening Results: S. aureus (increase in extracellular AK activity)): 0.9
- fold induction at 50 µM ([2]; planktonic A. baumannii, 384-well, cutoff for positive-scoring molecules 3-fold increase, read-out: AK-based Prestwick Library Screening Results: A. baumannii (increase in extracellular AK activity)): 1.2

SMILES: CCCNC(C)(C)COC(=O)c1ccccc1 [Meprylcaine hydrochloride]
- fold induction at 50 µM (E. faecium; planktonic E. faecium, positive cutoff 3-fold increase, read-out: AK-based Prestwick library screening result, E. faecium (fold increase in extracellular AK activity)): 0.9
- fold induction at 50 µM (P. aeruginosa; planktonic P. aeruginosa, positive cutoff 3-fold increase, read-out: AK-based Prestwick library screening result, P. aeruginosa (fold increase in extracellular AK activity)): 0.9
- fold induction at 50 µM (E. cloacae; planktonic E. cloacae, positive cutoff 3-fold increase, read-out: AK-based Prestwick library screening result, E. cloacae (fold increase in extracellular AK activity)): 0.8
- fold induction at 50 µM (E. coli; planktonic E. coli, positive cutoff 3-fold increase, read-out: AK-based Prestwick library screening result, E. coli (fold increase in extracellular AK activity)): 0.9
- fold induction at 50 µM (K. pneumoniae; planktonic K. pneumoniae, positive cutoff 3-fold increase, read-out: AK-based Prestwick library screening result, K. pneumoniae (fold increase in extracellular AK activity)): 0.7
- fold induction at 50 µM ([1]; planktonic S. aureus, positive cutoff 3-fold increase, read-out: AK-based Prestwick library screening result, S. aureus (fold increase in extracellular AK activity)): 0.6
- fold induction at 50 µM ([2]; planktonic A. baumannii, positive cutoff 3-fold increase, read-out: AK-based Prestwick library screening result, A. baumannii (fold increase in extracellular AK activity)): 0.8

SMILES: C[N+]1(C)CCCC(OC(=O)C(O)(c2ccccc2)c2ccccc2)C1 (stereo not shown) [Mepenzolate bromide]
- fold induction at 50 µM (E. faecium; planktonic, cutoff for positive-scoring molecules 3-fold increase, read-out: AK-based Prestwick Library Screening Results, E. faecium (fold increase in extracellular AK activity)): 1
- fold induction at 50 µM (P. aeruginosa; planktonic, cutoff for positive-scoring molecules 3-fold increase, read-out: AK-based Prestwick Library Screening Results, P. aeruginosa (fold increase in extracellular AK activity)): 0.6
- fold induction at 50 µM (E. cloacae; planktonic, cutoff for positive-scoring molecules 3-fold increase, read-out: AK-based Prestwick Library Screening Results, E. cloacae (fold increase in extracellular AK activity)): 0.7
- fold induction at 50 µM (E. coli; planktonic, cutoff for positive-scoring molecules 3-fold increase, read-out: AK-based Prestwick Library Screening Results, E. coli (fold increase in extracellular AK activity)): 0.6
- fold induction at 50 µM (K. pneumoniae; planktonic, cutoff for positive-scoring molecules 3-fold increase, read-out: AK-based Prestwick Library Screening Results, K. pneumoniae (fold increase in extracellular AK activity)): 0.6
- fold induction at 50 µM ([1]; planktonic, cutoff for positive-scoring molecules 3-fold increase, read-out: AK-based Prestwick Library Screening Results, S. aureus (fold increase in extracellular AK activity)): 0.6
- fold induction at 50 µM ([2]; planktonic, cutoff for positive-scoring molecules 3-fold increase, read-out: AK-based Prestwick Library Screening Results, A. baumannii (fold increase in extracellular AK activity)): 0.7

SMILES: [H]/N=C(/N)NS(=O)(=O)c1ccc(N)cc1 [Sulfaguanidine]
- fold induction at 50 µM (E. faecium; [3]): 1
- fold induction at 50 µM (P. aeruginosa; [4]): 0.5
- fold induction at 50 µM (E. cloacae; [5]): 0.4
- fold induction at 50 µM (E. coli; [6]): 0.5
- fold induction at 50 µM (K. pneumoniae; [7]): 0.6
- fold induction at 50 µM [1, 8]: 0.5
- fold induction at 50 µM [2, 9]: 0.5

SMILES: CN1CCN(C(c2ccccc2)c2ccc(Cl)cc2)CC1 (stereo not shown) [Chlorcyclizine hydrochloride]
- fold induction at 50 µM (E. faecium; [10]): 1
- fold induction at 50 µM (P. aeruginosa; [11]): 1.1
- fold induction at 50 µM (E. cloacae; [12]): 1.6
- fold induction at 50 µM (E. coli; [13]): 1.3
- fold induction at 50 µM (K. pneumoniae; [14]): 1.1
- fold induction at 50 µM [1, 15]: 1.2
- fold induction at 50 µM [2, 16]: 1.5

SMILES: CC(C)n1c(/C=C/C(O)CC(O)CC(=O)O)c(-c2ccc(F)cc2)c2ccccc21 (stereo not shown) [Fluvastatin sodium salt]
- fold induction at 50 µM (E. faecium; [10]): 1
- fold induction at 50 µM (P. aeruginosa; [11]): 1
- fold induction at 50 µM (E. cloacae; [12]): 1.7
- fold induction at 50 µM (E. coli; [13]): 1.3
- fold induction at 50 µM (K. pneumoniae; [14]): 0.9
- fold induction at 50 µM [1, 15]: 1
- fold induction at 50 µM [2, 16]: 0.9
